From patent US8546377B2 (AbbVie Inc., priority 2009, dated 2013)
Read-outs that look alike come from different tables or passages of the source.

What was measured:
[1] = target: T1, 5HT2B receptors (Homo sapiens, UniProt P41595); experiment: Human 5-HT2B functional assay in CHO-K1 cells (calcium flux, FLIPR); type: cell-based
T1 construct: expressed in transfected cells; host or cells: CHO-K1 cells
Experimental: (§1) (iii) Human 5-HT2C and 5-HT2B Functional Assay in CHO-K1 Cells
(§2) CHO-K1 cells over-expressing 5HT2C or 5HT2B receptors were grown in 1272 cm^2 flasks to 70-80% confluency in UltraCHO media supplemented with 1% dialyzed fetal bovine serum (FBS), 250 μg/mL zeocin, 100 U/mL penicillin/streptomycin, and 400 μg/mL geneticin. The cells were dissociated from the flasks using 0.05% trypsin, resuspended in freezing media and stored in liquid nitrogen until use. Calcium flux experiments were done using frozen cells. The cells were diluted in media containing 1% dialyzed FBS and 100 U/mL penicillin/streptomycin and plated into 384-well poly-D-Lysine coated plates (15,000 cells/well). Then the plates were incubated overnight in a cell incubator at 37° C., 5% CO2. On the next day, the growth media was replaced with media without FBS and further incubated overnight. On day three, the changes in intracellular Ca^2+ were determined using calcium sensitive fluorescent dye, Ca4 (MDS Analytical Technologies, Sunnyvale, Calif.) by loading 15 μL of diluted dye with 2.5 mM probenecid into the cells containing media and incubated at room temperature for 60 minutes in dark.
(§3) Fluorescence measurements were read at 25° C. at an excitation wavelength of 480 nm and an emission wavelength of 530 nm in FLIPR (MDS). Baseline fluorescence was measured for the first 10 seconds and then 15 μL of 4× concentrations of serotonin/test compounds was added to the cell plate. The fluorescence intensity was captured every second for the first 1 minute followed by every 5 seconds for an additional 2 minutes. The increase in fluorescent response was determined and was normalized to the response of serotonin. The concentration response of compounds was done from a starting concentration of 10 μM, 1:10 dilution across 6 wells with a final dimethyl sulfoxide concentration of 0.2% and was fitted using a 4-parameter logistic equation. The concentration at which a compound exerts half its maximal effect was named as ‘effective concentration 50’ or ‘EC50’.
(§4) Emax is the maximum functional response or efficacy expressed as a percentage relative to the effect of serotonin.

[2] = target: T2, 5HT2C receptors (Homo sapiens, UniProt P28335); experiment: Human 5-HT2C functional assay in CHO-K1 cells (calcium flux, FLIPR); type: cell-based; parameters: expressed in transfected cells; host or cells: CHO-K1 cells
T2 sequence (P28335 33-458): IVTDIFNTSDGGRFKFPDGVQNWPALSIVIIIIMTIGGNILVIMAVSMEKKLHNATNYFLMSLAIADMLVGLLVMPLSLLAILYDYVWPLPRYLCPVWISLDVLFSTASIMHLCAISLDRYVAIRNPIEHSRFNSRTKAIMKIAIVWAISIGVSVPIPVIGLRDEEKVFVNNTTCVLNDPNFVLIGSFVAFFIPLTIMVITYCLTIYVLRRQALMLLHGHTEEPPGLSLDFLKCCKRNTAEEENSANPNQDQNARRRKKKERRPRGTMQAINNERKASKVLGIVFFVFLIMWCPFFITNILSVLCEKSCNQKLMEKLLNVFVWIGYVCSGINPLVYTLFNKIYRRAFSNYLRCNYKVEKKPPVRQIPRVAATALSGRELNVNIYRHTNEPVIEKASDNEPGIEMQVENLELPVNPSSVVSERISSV
Experimental: as §1, §2, §3, §4

[3] = CHO-K1 cells over-expressing 5HT2B, calcium flux, read-out: EC50 (μM), 5-HT2B Agonist Activity
[4] = CHO-K1 cells, percentage relative to the effect of serotonin, read-out: Emax (%), 5-HT2B Agonist Activity
[5] = CHO-K1 cells over-expressing 5HT2C, calcium flux, read-out: EC50 (μM), 5-HT2c Agonist Activity
[6] = CHO-K1 cells, percentage relative to the effect of serotonin, read-out: Emax (%), 5-HT2c Agonist Activity
[7] = CHO-K1, read-out: Emax (%), 5-HT2c Agonist Activity, CHO-K1 cells, percentage relative to the effect of serotonin
[8] = CHO-K1, read-out: Emax (%), 5-HT2B Agonist Activity

T1 sequence (P41595 whole entry): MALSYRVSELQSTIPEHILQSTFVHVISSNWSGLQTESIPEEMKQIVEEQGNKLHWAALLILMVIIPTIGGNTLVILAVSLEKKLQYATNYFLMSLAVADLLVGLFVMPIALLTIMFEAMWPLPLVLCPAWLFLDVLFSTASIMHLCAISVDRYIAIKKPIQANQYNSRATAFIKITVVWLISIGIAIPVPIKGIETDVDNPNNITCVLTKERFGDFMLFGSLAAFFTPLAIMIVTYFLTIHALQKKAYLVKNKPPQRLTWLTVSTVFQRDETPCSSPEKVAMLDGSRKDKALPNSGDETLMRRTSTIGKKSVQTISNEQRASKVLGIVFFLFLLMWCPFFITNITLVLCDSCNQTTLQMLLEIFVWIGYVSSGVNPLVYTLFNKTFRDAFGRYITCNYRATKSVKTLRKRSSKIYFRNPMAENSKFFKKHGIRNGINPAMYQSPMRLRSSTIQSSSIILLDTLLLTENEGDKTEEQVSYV

Structure (SMILES) | EC50 [1, 3] [µM] | Emax [1, 4] [%] | EC50 [2, 5] [µM] | Emax [2, 6] [%] | EC50 [1] [µM] | EC50 [2] [µM] | Emax [2, 7] [%] | other results
O=C1CC2CNCCN2c2cc(COc3ccccc3)ccc2N1 (stereo not drawn) [Example 111, 10-(phenoxymethyl)-1,2,3,4,4a,5-hexahydropyrazino[1,2-a][1,5]benzodiazepin-6(7H)-one] | 0.7 | 20 | 0.02 | > 120 | – | – | – | –
O=C1CC2CNCCN2c2cc(COc3ccccc3F)ccc2N1 (stereo not drawn) [Example 113, 10-[(2-fluorophenoxy)methyl]-1,2,3,4,4a,5-hexahydropyrazino[1,2-a][1,5]-benzodiazepin-6(7H)-one] | 0.2 | 50 | 0.05 | > 120 | – | – | – | –
O=C1CC2CNCCN2c2cc(COc3cccc(F)c3)ccc2N1 (stereo not drawn) [Example 114, 10-[(3-fluorophenoxy)methyl]-1,2,3,4,4a,5-hexahydropyrazino[1,2-a][1,5]benzodiazepin-6(7H)-one] | 0.4 | 30 | 0.05 | > 120 | – | – | – | –
O=C1CC2CNCCN2c2cc(COc3ccc(F)cc3)ccc2N1 (stereo not drawn) [Example 115, 10-[(4-fluorophenoxy)methyl]-1,2,3,4,4a,5-hexahydropyrazino[1,2-a][1,5]benzodiazepin-6(7H)-one] | > 10 | – | 0.2 | > 120 | – | – | – | –
O=C1C[C@H]2CNCCN2c2cc(-c3ccccc3F)ccc2N1 [Example 116, (4aS)-10-(2-fluorophenyl)-1,2,3,4,4a,5-hexahydropyrazino[1,2-a][1,5]benzodiazepin-6(7H)-one] | 0.05 | 30 | 0.008 | > 120 | – | – | – | –
CC(C)Oc1cccc(-c2ccc3c(c2)N2CCNC[C@@H]2CC(=O)N3)c1 [Example 117, (4aS)-10-(3-isopropoxyphenyl)-1,2,3,4,4a,5-hexahydropyrazino[1,2-a][1,5]benzodiazepin-6(7H)-one] | > 10 | – | 0.001 | > 120 | – | – | – | –
O=C1C[C@H]2CNCCN2c2cc(OCCc3ccccc3F)ccc2N1 [Example 118, (4aS)-10-[2-(2-fluorophenyl)ethoxy]-1,2,3,4,4a,5-hexahydropyrazino[1,2-a][1,5]benzodiazepin-6(7H)-one] | > 10 | – | 0.009 | > 120 | – | – | – | –
O=C1C[C@H]2CNCCN2c2cc(OC(F)F)ccc2N1 [Example 131, (4aS)-10-(difluoromethoxy)-1,2,3,4,4a,5-hexahydropyrazino[1,2-a][1,5]benzodiazepin-6(7H)-one] | 0.08 | 20 | 0.04 | 110 | – | – | – | –
CN1CCN2c3ccccc3OCC[C@H]2C1 [Example 132, (4aS)-3-methyl-2,3,4,4a,5,6-hexahydro-1H-pyrazino[2,1-d][1,5]benzoxazepine] | – | – | – | – | > 10 | 0.007 | > 120 | –
Cc1ccc2c(c1)OCC[C@H]1CNCCN21 [Example 133, (4aS)-9-methyl-2,3,4,4a,5,6-hexahydro-1H-pyrazino[2,1-d][1,5]benzoxazepine] | – | – | – | – | > 10 | 0.01 | 100 | –
COc1ccc2c(c1)OCC[C@H]1CNCCN21 [Example 134, (4aS)-9-methoxy-2,3,4,4a,5,6-hexahydro-1H-pyrazino[2,1-d][1,5]benzoxazepine] | – | – | – | – | – | – | – | EC50 ([1]; read-out: EC50 (μM), 5-HT2B Agonist Activity, CHO-K1 cells over-expressing 5HT2B, calcium flux): > 10 µM; Emax (%), 5-HT2c Agonist Activity ([2]; CHO-K1 cells, percentage relative to the effect of serotonin): 100%; EC50 ([2]; read-out: EC50 (μM), 5-HT2c Agonist Activity, CHO-K1 cells over-expressing 5HT2C, calcium flux): 0.05 µM
Nc1ccc2c(c1)OCC[C@H]1CNCCN21 [Example 135, (4aS)-2,3,4,4a,5,6-hexahydro-1H-pyrazino[2,1-d][1,5]benzoxazepin-9-amine] | > 10 | – | 1 | – | – | – | 80 | –
Fc1ccc2c(c1)OCC[C@H]1CNCCN21 [Example 136, (4aS)-9-fluoro-2,3,4,4a,5,6-hexahydro-1H-pyrazino[2,1-d][1,5]benzoxazepine] | – | – | – | – | 0.1 | 0.002 | > 120 | Emax [1, 8]: 20%
Cc1ccc2c(c1)N1CCNC[C@@H]1CCO2 [Example 137, (4aS)-10-methyl-2,3,4,4a,5,6-hexahydro-1H-pyrazino[2,1-d][1,5]benzoxazepine] | – | – | – | – | 0.05 | 0.002 | > 120 | Emax [1, 8]: 60%
Clc1cccc2c1OCC[C@H]1CNCCN21 [Example 138, (4aS)-8-chloro-2,3,4,4a,5,6-hexahydro-1H-pyrazino[2,1-d][1,5]benzoxazepine] | – | – | – | – | > 10 | 0.0007 | > 120 | –
Fc1cccc2c1OCC[C@H]1CNCCN21 [Example 139, (4aS)-8-fluoro-2,3,4,4a,5,6-hexahydro-1H-pyrazino[2,1-d][1,5]benzoxazepine] | – | – | – | – | 0.06 | 0.0004 | > 120 | Emax [1, 8]: 20%
Clc1ccc2c(c1)N1CCNC[C@@H]1CCO2 [Example 140, (4aS)-10-chloro-2,3,4,4a,5,6-hexahydro-1H-pyrazino[2,1-d][1,5]-benzoxazepine] | – | – | – | – | 0.03 | 0.0005 | > 120 | Emax [1, 8]: 60%
O=C1CC2CNCCN2c2cc(/C=C/c3ccccc3C(F)(F)F)ccc2N1 (stereo not drawn) [Example 142, 10-{(E)-2-[2-(trifluoromethyl)phenyl]vinyl}-1,2,3,4,4a,5-hexahydropyrazino[1,2-a][1,5]benzodiazepin-6(7H)-one] | > 10 | – | 0.08 | > 120 | – | – | – | –
O=C1CC2CNCCN2c2cc(/C=C/c3cc(F)cc(F)c3)ccc2N1 (stereo not drawn) [Example 143, 10-[(E)-2-(3,5-difluorophenyl)vinyl]-1,2,3,4,4a,5-hexahydropyrazino[1,2-a][1,5]benzodiazepin-6(7H)-one] | 1 | 60 | 0.02 | > 120 | – | – | – | –
O=C1CC2CNCCN2c2cc(CCc3ccccc3F)ccc2N1 (stereo not drawn) [Example 144, 10-[2-(2-fluorophenyl)ethyl]-1,2,3,4,4a,5-hexahydropyrazino[1,2-a][1,5]benzodiazepin-6(7H)-one] | > 10 | 50 | 0.002 | > 120 | – | – | – | –
O=C1CC2CNCCN2c2cc(CCc3cccc(F)c3)ccc2N1 (stereo not drawn) [Example 145, 10-[2-(3-fluorophenyl)ethyl]-1,2,3,4,4a,5-hexahydropyrazino[1,2-a][1,5]benzodiazepin-6(7H)-one] | > 10 | – | 0.006 | > 120 | – | – | – | –
O=C1CC2CNCCN2c2cc(CCc3ccccc3C(F)(F)F)ccc2N1 (stereo not drawn) [Example 146, 10-{2-[2-(trifluoromethyl)phenyl]ethyl}-1,2,3,4,4a,5-hexahydropyrazino[1,2-a][1,5]benzodiazepin-6(7H)-one] | > 10 | – | 0.005 | > 120 | – | – | – | –
O=C1CC2CNCCN2c2cc(CCc3cc(F)cc(F)c3)ccc2N1 (stereo not drawn) [Example 147, 10-[2-(3,5-difluorophenyl)ethyl]-1,2,3,4,4a,5-hexahydropyrazino[1,2-a][1,5]benzodiazepin-6(7H)-one] | > 10 | – | 0.01 | > 120 | – | – | – | –
O=C1C[C@H]2CNCCN2c2cccc(Cl)c2N1 [Example 148, (4aS)-8-chloro-1,2,3,4,4a,5-hexahydropyrazino[1,2-a][1,5]benzodiazepin-6(7H)-one] | – | – | – | – | > 10 | 0.007 | > 120 | –
O=C1CC2CNCCN2c2cc(OCc3ccccc3)ccc2N1 (stereo not drawn) [Example 149, 10-(benzyloxy)-1,2,3,4,4a,5-hexahydropyrazino[1,2-a][1,5]benzodiazepin-6(7H)-one] | 1 | 30 | 0.02 | > 120 | – | – | – | –
